Patent publication US12421193B2, “GPR52 modulators and methods of use” (Neurocrine Biosciences, Inc., priority 2020, dated 2025)
Where a name gives a salt, the structure may show the parent alone.

Target: T1, recombinant human GPR52 (Homo sapiens, UniProt Q9Y2T5)
T1 construct: expressed in transfected cells
Experiment: TR-FRET cAMP assay (LANCE Ultra cAMP Kit), GPR52 activity
Assay type: cell-based
Details: Flp-In-CHO cells stably expressing recombinant human GPR52; cAMP production, normalized to the positive control
Method: TR-FRET cAMP assays were performed using commercially available assay kits (LANCE™ Ultra cAMP Kit). Controls and compounds were solubilized in DMSO using ½ log dilution to generate duplicate 10-point dose response curves in 384-well polypropylene compound plates. Sixty nanoliters of the diluted compounds were transferred into 384-well NBS assay plates and further diluted to 1× with the addition of 2000 cells per well. Flp-In™—CHO cells that stably express recombinant human GPR52.
Cells were harvested with cell stripper and resuspended in Stimulation Buffer (5 mM HEPES, 0.1% bovine serum albumin (BSA), 0.5 mM IBMX, pH 7.4). After thirty minutes incubation at room temperature, detection reagents were added to each well. Plates were then incubated for 30 minutes at room temperature. The LANCE™ Ultra cAMP assay uses time-resolved fluorescence resonance energy transfer (TR-FRET) to detect cAMVP production; this signal was quantified using a Pherastar multi-mode plate reader.
Dose-response curves were generated from the fluorescence counts normalized to the positive control. E EC50 values were obtained using a nonlinear regression curve-fitting program.

T1 sequence (Q9Y2T5 whole entry): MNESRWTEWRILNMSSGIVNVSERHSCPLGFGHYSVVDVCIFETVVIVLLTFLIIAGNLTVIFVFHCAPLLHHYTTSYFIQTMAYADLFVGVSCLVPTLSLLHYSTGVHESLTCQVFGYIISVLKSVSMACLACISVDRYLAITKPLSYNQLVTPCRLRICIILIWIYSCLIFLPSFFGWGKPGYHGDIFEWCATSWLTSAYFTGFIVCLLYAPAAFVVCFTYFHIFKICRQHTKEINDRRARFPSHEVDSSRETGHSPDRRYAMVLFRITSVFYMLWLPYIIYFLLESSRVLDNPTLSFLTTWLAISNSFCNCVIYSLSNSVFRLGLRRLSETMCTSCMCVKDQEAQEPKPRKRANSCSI

COc1cc(OCc2cncc(-c3ccc(C(N)=O)c(C)c3)c2)ccc1C#N [Example 94, 4-[5-(4-cyano-3-methoxyphenoxymethyl)pyridin-3-yl]-2-methylbenzamide]
EC50: 101 to 1000 nM

Cc1cc(-c2ccnc(COc3ccc(C(F)(F)F)cc3)c2)ccc1C(N)=O [Example 81, 4-{2-[4-(trifluoromethyl)phenoxymethyl]pyridin-4-yl}-2-methylbenzamide hydrochloride]
EC50: < 25 nM

Cc1cc(-c2cc(COc3cc(F)c(F)c(Cl)c3)ccn2)ccc1C(N)=O [Example 54, 4-[4-(3-chloro-4,5-difluorophenoxymethyl)pyridin-2-yl]-2-methylbenzamide]
EC50: < 25 nM

N#Cc1ccc(OCc2ccnc(-c3ccc(C(N)=O)c(Cl)c3)c2)cc1F [Example 77, 4-[4-(4-cyano-3-fluorophenoxymethyl)pyridin-2-yl]-2-chlorobenzamide]
EC50: 25 to 100 nM

NC(=O)c1ccc(-c2cc(COc3ccc(C(F)(F)F)cc3)ccn2)cc1Cl [Example 76, 4-{4-[4-(trifluoromethyl)phenoxymethyl]pyridin-2-yl}2-chlorobenzamide]
EC50: < 25 nM

Cc1cc(-c2cc(COc3cccc(Cl)c3F)ccn2)ccc1C(N)=O [Example 50, 4-[4-(3-chloro-2-fluorophenoxymethyl)pyridin-2-yl]-2-methylbenzamide]
EC50: 25 to 100 nM

NC(=O)c1ccc(-c2cc(COc3ccc(C(F)(F)F)cc3)ccn2)cc1C(F)(F)F [Example 78, 4-{4-[4-(trifluoromethyl)phenoxymethyl]pyridin-2-yl}-2-(trifluoromethyl)benzamide]
EC50: 25 to 100 nM

COc1cccc(OCc2ccnc(-c3ccc(C(N)=O)c(C)c3)c2)c1 [Example 39, 4-[4-(3-methoxyphenoxymethyl)pyridin-2-yl]-2-methylbenzamide]
EC50: 101 to 1000 nM

COc1ccc(OCc2ccnc(-c3ccc(C(N)=O)c(C)c3)c2)cc1 [Example 30, 4-[4-(4-methoxyphenoxymethyl)pyridin-2-yl]-2-methylbenzamide]
EC50: 101 to 1000 nM

Cc1cc(-c2cc(COC3CCCCC3)ccn2)ccc1C(N)=O [Example 104, 4-{4-[(cyclohexyloxy)methyl]pyridin-2-yl}-2-methylbenzamide]
EC50: 101 to 1000 nM

CCC(=O)c1ccc(OCc2ccnc(-c3ccc(C(N)=O)c(C)c3)c2)cc1 [Example 59, 4-[4-(4-propanoylphenoxymethyl)pyridin-2-yl]2-methylbenzamide]
EC50: 101 to 1000 nM

Cc1cc(-c2cc(COc3ccc(F)c(Cl)c3)ccn2)ccc1C(N)=O [Example 47, 4-[4-(3-chloro-4-fluorophenoxymethyl)pyridin-2-yl]-2-methylbenzamide]
EC50: < 25 nM

Cc1cc(-c2cc(COc3ccc(C#N)cc3)ccn2)ccc1C(N)=O [Example 26, 4-[4-(4-cyanophenoxymethyl)pyridin-2-yl]-2-methylbenzamide]
EC50: 25 to 100 nM

CC(=O)c1ccc(OCc2ccnc(-c3ccc(C(N)=O)c(C)c3)c2)cc1C [Example 13, 4-[4-(4-acetyl-3-methylphenoxymethyl)pyridin-2-yl]-2-methylbenzamide]
EC50: < 25 nM

Cc1cc(-c2ccnc(COc3cc(F)c(F)c(F)c3)c2)ccc1C(N)=O [Example 83, 4-[2-(3,4,5-trifluorophenoxymethyl)pyridin-4-yl]-2-methylbenzamide]
EC50: 101 to 1000 nM

COc1cc(Cl)ccc1OCc1ccnc(-c2ccc(C(N)=O)c(C)c2)c1 [Example 51, 4-[4-(4-chloro-2-methoxyphenoxymethyl)pyridin-2-yl]-2-methylbenzamide]
EC50: 25 to 100 nM

COc1cc(OCc2ccnc(-c3ccc(C(N)=O)c(C)c3)c2)ccc1C#N [Example 55, 4-[4-(4-cyano-3-methoxyphenoxymethyl)pyridin-2-yl]-2-methylbenzamide]
EC50: < 25 nM

Cc1ccc(OCc2ccnc(-c3ccc(C(N)=O)c(C)c3)c2)cc1Cl [Example 18, 4-[4-(3-chloro-4-methylphenoxymethyl)pyridin-2-yl]-2-methylbenzamide]
EC50: < 25 nM

Cc1cc(-c2cncc(COc3cc(F)c(F)c(F)c3)c2)ccc1C(N)=O [Example 100, 4-[5-(3,4,5-trifluorophenoxymethyl)pyridin-3-yl]2-methylbenzamide]
EC50: 101 to 1000 nM

COc1ccc(OCc2cncc(-c3ccc(C(N)=O)c(C)c3)c2)c(Cl)c1 [Example 99, 4-[5-(2-chloro-4-methoxyphenoxymethyl)pyridin-3-yl]-2-methylbenzamide]
EC50: > 1000 nM

Cc1cc(-c2cc(COc3ccc(Cl)c(C#N)c3)ccn2)ccc1C(N)=O [Example 49, 4-[4-(4-chloro-3-cyanophenoxymethyl)pyridin-2-yl]-2-methylbenzamide]
EC50: 25 to 100 nM

CC(=O)Nc1cccc(OCc2ccnc(-c3ccc(C(N)=O)c(C)c3)c2)c1 [Example 35, 4-[4-(3-acetamidophenoxymethyl)pyridin-2-yl]-2-methylbenzamide]
EC50: 101 to 1000 nM

Cc1cc(-c2cc(COc3cc(F)c(F)c(F)c3)ccn2)ccc1C(N)=O [Example 57, 4-[4-(3,4,5-trifluorophenoxymethyl)pyridin-2-yl]-2-methyl benzamide]
EC50: < 25 nM

Cc1cc(OCc2ccnc(-c3ccc(C(N)=O)c(C)c3)c2)ccc1F [Example 27, 4-[4-(4-fluoro-3-methylphenoxymethyl)pyridin-2-yl]-2-methylbenzamide]
EC50: 101 to 1000 nM

CC(=O)c1ccc(OCc2ccnc(-c3ccc(C(N)=O)c(C)c3)c2)cc1F [Example 60, 4-[4-(4-acetyl-3-fluorophenoxymethyl)pyridin-2-yl]-2-methylbenzamide]
EC50: < 25 nM

Cc1cc(-c2cc(COc3ccc(F)c(C#N)c3)ccn2)ccc1C(N)=O [Example 7, 4-[4-(3-cyano-4-fluorophenoxymethyl)pyridin-2-yl]-2-methylbenzamide]
EC50: 101 to 1000 nM

Cc1cc(-c2cc(COc3ccc(F)cc3Cl)ccn2)ccc1C(N)=O [Example 45, 4-[4-(2-chloro-4-fluorophenoxymethyl)pyridin-2-yl]-2-methylbenzamide]
EC50: 101 to 1000 nM

Cc1cc(-c2cc(COc3ccc(C(F)(F)F)c(F)c3)ccn2)ccc1C(N)=O [Example 65, 4-{4-[3-fluoro-4-(trifluoromethyl)phenoxymethyl]pyridin-2-yl}-2-methylbenzamide]
EC50: < 25 nM

Cc1cc(-c2ccnc(COc3ccc(C#N)c(F)c3)n2)ccc1C(N)=O [Example 103, 4-[2-(4-cyano-3-fluorophenoxymethyl)pyrimidin-4-yl]-2-methylbenzamide]
EC50: 101 to 1000 nM

Cc1cc(-c2cc(COc3cccc(C(F)(F)F)c3)ccn2)ccc1C(N)=O [Example 2, 4-{4-[3-(trifluoromethyl)phenoxymethyl]pyridin-2-yl}-2-methyl benzamide]
EC50: < 25 nM

Cc1cc(-c2cc(COc3ccc(C#N)c(F)c3)ccn2)ccc1C(=O)NCCN(C)C [Example 80, 4-[4-(4-cyano-3-fluorophenoxymethyl)pyridin-2-yl]-N-[2-(dimethylamino)ethyl]-2-methylbenzamide]
EC50: < 25 nM

Cc1cc(-c2cncc(COc3cc(F)cc(C#N)c3)c2)ccc1C(N)=O [Example 92, 4-[5-(3-cyano-5-fluorophenoxymethyl)pyridin-3-yl]-2-methylbenzamide]
EC50: > 1000 nM

Cc1cc(-c2ccnc(COc3ccc4c(c3)OCC4)c2)ccc1C(N)=O [Example 88, 4-{2-[(2,3-dihydro-1-benzofuran-6-yloxy)methyl]pyridin-4-yl}-2-methylbenzamide]
EC50: < 25 nM
